Laboratory results reported in article PMC11992225, “Antibacterial compounds against non-growing and intracellular bacteria” (npj Antimicrobials and Resistance, 2025).
Values after ≈ are worked out from the molar mass of the structure shown. Values joined by “and” are separate entries in the source; they are usually repeats but may differ in a detail not shown here. Equal values may be shown once. Read-outs that look alike come from different tables or passages of the source.

Experiments:
S. aureus DSM2569 = assay: MIC, standard microdilution assay, growing S. aureus; format: cell-based, Staphylococcus aureus; settings: for MIC: Staphylococcus aureus
How it was run: (§1)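 Medium: CA-MHB + 40 mM HEPES, pH 7.4 (UPEC, P. aeruginosa, S. aureus); LPM + 30 mM MES, pH 5.5 (UPEC, extra condition); TSB (S. flexneri). Microdilution format, n = 3.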

[1] = system: intracellular S. flexneri 5a M90T in TC7 cells; assay: microbe, parasite or virus in culture; format: cell-based, Shigella flexneri; settings: for IC50: Shigella flexneri, TC7, 14 h
non-growing UPEC CFT073 = assay: Dose-dependent killing analysis (CFU spot-plating) of stationary-phase UPEC; format: cell-based, Escherichia coli; settings: for log10(CFU/ml) after treatment: individual replicates
How it was run: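 Killing assessed by CFU counts: overnight 37 °C LB agar spot plates (10 μl drops of 10-fold PBS dilutions) scored at the lowest dilution with distinct colonies. Samples were compound-treated non-growing UPEC CFT073, 200 μl per well. Performed as three biological replicates.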

E. coli CFT073 (UPEC) = assay: MIC, standard microdilution assay, growing UPEC; format: cell-based, Escherichia coli; settings: for MIC: Escherichia coli
How it was run: as §1

[2] = TC7 cells infected with GFP-expressing S. flexneri, 14 h treatment
[3] = E. coli in 1:4 CA-MHB (pH 7.4), 0.25 μM
[4] = E. coli in 1:4 CA-MHB (pH 7.4), 0.5 μM
[5] = E. coli in 1:4 CA-MHB (pH 7.4), 1 μM
[6] = E. coli in 1:4 CA-MHB (pH 7.4), 2.5 μM
[7] = E. coli in 1:4 CA-MHB (pH 7.4), 5 μM
[8] = E. coli in 1:4 CA-MHB (pH 7.4), 10 μM
[9] = E. coli in LPM (pH 5.5), 0.25 μM
[10] = E. coli in LPM (pH 5.5), 0.5 μM
[11] = E. coli in LPM (pH 5.5), 2.5 μM

## N[C@@H]1CCCCN(c2c(F)cc3c(=O)c(C(=O)O)cn(C4CC4)c3c2Cl)C1 [Besifloxacin]
S. aureus DSM2569; DSM2569, S. aureus, CA-MHB pH 7.4, read-out: MIC (μM) CA-MHB
  MIC: 0.25 µM (≈ 0.0985 µg/mL)
[1]
  IC50: 0.331 µM
[1]; [2]
  Fluorescence intensity (RFU), Mean, 0.5 x MIC: 8982.33 RFU
  Fluorescence intensity (RFU), Mean, 2 x MIC: 4305.25 RFU
  Fluorescence intensity (RFU), Mean, 4 x MIC: 3977.14 RFU
  Fluorescence intensity (RFU), Mean, 8 x MIC: 2983.69 RFU
  Fluorescence intensity (RFU), Mean, MIC: 5856.42 RFU
[1]; TC7 cells infected with GFP-expressing S. flexneri, 14 h treatment, 16 x MIC
  Fluorescence intensity (RFU), Mean, 16 x MIC: 2325.53 RFU
[1]; TC7 cells infected with GFP-expressing S. flexneri, 14 h treatment, 32 x MIC
  Fluorescence intensity (RFU), Mean, 32 x MIC: 1789.06 RFU
non-growing UPEC CFT073; E. coli in 1:4 CA-MHB (pH 7.4), concentration 0.25
  log10(CFU/ml) after treatment: 8.778 log10(CFU/ml) and 8.699 log10(CFU/ml) and 8.477 log10(CFU/ml)
non-growing UPEC CFT073; E. coli in 1:4 CA-MHB (pH 7.4), concentration 0.5
  log10(CFU/ml) after treatment: 8.491 log10(CFU/ml) and 8.204 log10(CFU/ml) (2×)
non-growing UPEC CFT073; E. coli in 1:4 CA-MHB (pH 7.4), concentration 1
  log10(CFU/ml) after treatment: 7.568 log10(CFU/ml) and 7.322 log10(CFU/ml) and 7.301 log10(CFU/ml)
non-growing UPEC CFT073; E. coli in 1:4 CA-MHB (pH 7.4), concentration 2.5
  log10(CFU/ml) after treatment: 6.462 log10(CFU/ml) and 6.204 log10(CFU/ml) and 6.342 log10(CFU/ml)
non-growing UPEC CFT073; E. coli in 1:4 CA-MHB (pH 7.4), concentration 5
  log10(CFU/ml) after treatment: 6.398 log10(CFU/ml) and 5.342 log10(CFU/ml) and 5.362 log10(CFU/ml)
non-growing UPEC CFT073; E. coli in 1:4 CA-MHB (pH 7.4), concentration 10
  log10(CFU/ml) after treatment: 6.114 log10(CFU/ml) and 5.230 log10(CFU/ml) and 5.000 log10(CFU/ml)
E. coli CFT073 (UPEC); E. coli, pH 7.4, CA-MHB, read-out: MIC (μM) CA-MHB
  MIC: 0.25 µM (≈ 0.0985 µg/mL)

## Cn1c(COP(=O)(NCCBr)NCCBr)cnc1[N+](=O)[O-] [Evofosfamide]
S. aureus DSM2569; S. aureus, CA-MHB with 10 μg/ml PaβN
  MIC (μM) CA-MHB +PAβN: 80 µM (≈ 35.9 µg/mL)
S. aureus DSM2569; DSM2569, pH 7.4, read-out: MIC (μM) 1:4 CA-MHB
  MIC: 80 µM (≈ 35.9 µg/mL)
S. aureus DSM2569; DSM2569, pH 7.4, read-out: MIC (μM) CA-MHB
  MIC: 160 µM (≈ 71.8 µg/mL)
[1]; S. flexneri MIC in TSB versus intracellular IC50
  MIC:IC50 ratio: below 0.5
[1]
  IC50: 102 µM
[1]; TC7 cells infected with GFP-expressing S. flexneri, 14 h treatment, 0.25 x MIC
  Fluorescence intensity (RFU), Mean, 0.25 x MIC: 9046.58 RFU
[1]; [2]
  Fluorescence intensity (RFU), Mean, 0.5 x MIC: 8823.33 RFU
  Fluorescence intensity (RFU), Mean, 2 x MIC: 7151.78 RFU
  Fluorescence intensity (RFU), Mean, 4 x MIC: 5305.28 RFU
  Fluorescence intensity (RFU), Mean, 8 x MIC: 3462.11 RFU
  Fluorescence intensity (RFU), Mean, MIC: 8378.86 RFU
non-growing UPEC CFT073; [3]
  Log10(CFU/ml), Replicate #1: 9.398 Log10(CFU/ml)
  Log10(CFU/ml), Replicate #2: 8.477 Log10(CFU/ml)
  Log10(CFU/ml), Replicate #3: 8.954 Log10(CFU/ml)
non-growing UPEC CFT073; E. coli in 1:4 CA-MHB (pH 7.4), 0.25 μM, average killing vs before treatment (8.977)
  Δlog10(CFU/ml): 0.034 log10(CFU/ml)
non-growing UPEC CFT073; [4]
  Log10(CFU/ml), Replicate #1: 9.279 Log10(CFU/ml)
  Log10(CFU/ml), Replicate #2: 9.114 Log10(CFU/ml)
  Log10(CFU/ml), Replicate #3: 8.301 Log10(CFU/ml)
non-growing UPEC CFT073; E. coli in 1:4 CA-MHB (pH 7.4), 0.5 μM, average killing vs before treatment (8.977)
  Δlog10(CFU/ml): 0.079 log10(CFU/ml)
non-growing UPEC CFT073; [5]
  Log10(CFU/ml), Replicate #1: 9.477 Log10(CFU/ml)
  Log10(CFU/ml), Replicate #2: 8.845 Log10(CFU/ml)
  Log10(CFU/ml), Replicate #3: 8.491 Log10(CFU/ml)
non-growing UPEC CFT073; E. coli in 1:4 CA-MHB (pH 7.4), 1 μM, average killing vs before treatment (8.977)
  Δlog10(CFU/ml): 0.039 log10(CFU/ml)
non-growing UPEC CFT073; [6]
  Log10(CFU/ml), Replicate #1: 9.415 Log10(CFU/ml)
  Log10(CFU/ml), Replicate #2: 8.954 Log10(CFU/ml)
  Log10(CFU/ml), Replicate #3: 8.491 Log10(CFU/ml)
non-growing UPEC CFT073; E. coli in 1:4 CA-MHB (pH 7.4), 2.5 μM, average killing vs before treatment (8.977)
  Δlog10(CFU/ml): 0.024 log10(CFU/ml)
non-growing UPEC CFT073; [7]
  Log10(CFU/ml), Replicate #1: 8.778 Log10(CFU/ml)
  Log10(CFU/ml), Replicate #2: 7.845 Log10(CFU/ml)
  Log10(CFU/ml), Replicate #3: 8.301 Log10(CFU/ml)
non-growing UPEC CFT073; E. coli in 1:4 CA-MHB (pH 7.4), 5 μM, average killing vs before treatment (8.977)
  Δlog10(CFU/ml): 0.669 log10(CFU/ml)
non-growing UPEC CFT073; [8]
  Log10(CFU/ml), Replicate #1: 9.000 Log10(CFU/ml)
  Log10(CFU/ml), Replicate #2: 8.000 Log10(CFU/ml)
  Log10(CFU/ml), Replicate #3: 7.778 Log10(CFU/ml)
non-growing UPEC CFT073; E. coli in 1:4 CA-MHB (pH 7.4), 10 μM, average killing vs before treatment (8.977)
  Δlog10(CFU/ml): 0.718 log10(CFU/ml)
non-growing UPEC CFT073; [9]
  Log10(CFU/ml), Replicate #1: 6.477 Log10(CFU/ml)
  Log10(CFU/ml), Replicate #2: 6.568 Log10(CFU/ml)
  Log10(CFU/ml), Replicate #3: 8.176 Log10(CFU/ml)
non-growing UPEC CFT073; E. coli in LPM (pH 5.5), 0.25 μM, average killing vs before treatment (7.350)
  Δlog10(CFU/ml): 0.277 log10(CFU/ml)
non-growing UPEC CFT073; [10]
  Log10(CFU/ml), Replicate #1: 6.602 Log10(CFU/ml)
  Log10(CFU/ml), Replicate #2: 6.903 Log10(CFU/ml)
  Log10(CFU/ml), Replicate #3: 8.230 Log10(CFU/ml)
non-growing UPEC CFT073; E. coli in LPM (pH 5.5), 0.5 μM, average killing vs before treatment (7.350)
  Δlog10(CFU/ml): 0.105 log10(CFU/ml)
non-growing UPEC CFT073; E. coli in LPM (pH 5.5), 1 μM
  Log10(CFU/ml), Replicate #1: 6.279 Log10(CFU/ml)
  Log10(CFU/ml), Replicate #2: 6.845 Log10(CFU/ml)
  Log10(CFU/ml), Replicate #3: 8.000 Log10(CFU/ml)
non-growing UPEC CFT073; E. coli in LPM (pH 5.5), 1 μM, average killing vs before treatment (7.350)
  Δlog10(CFU/ml): 0.309 log10(CFU/ml)
non-growing UPEC CFT073; [11]
  Log10(CFU/ml), Replicate #1: 6.301 Log10(CFU/ml)
  Log10(CFU/ml), Replicate #2: 6.079 Log10(CFU/ml)
  Log10(CFU/ml), Replicate #3: 7.954 Log10(CFU/ml)
non-growing UPEC CFT073; E. coli in LPM (pH 5.5), 2.5 μM, average killing vs before treatment (7.350)
  Δlog10(CFU/ml): 0.572 log10(CFU/ml)
non-growing UPEC CFT073; E. coli in LPM (pH 5.5), 5 μM
  Log10(CFU/ml), Replicate #1: 5.699 Log10(CFU/ml)
  Log10(CFU/ml), Replicate #2: 5.447 Log10(CFU/ml)
  Log10(CFU/ml), Replicate #3: 7.602 Log10(CFU/ml)
non-growing UPEC CFT073; E. coli in LPM (pH 5.5), 5 μM, average killing vs before treatment (7.350)
  Δlog10(CFU/ml): 1.101 log10(CFU/ml)
non-growing UPEC CFT073; E. coli in LPM (pH 5.5), 10 μM
  Log10(CFU/ml), Replicate #1: 5.176 Log10(CFU/ml)
  Log10(CFU/ml), Replicate #2: 4.954 Log10(CFU/ml)
  Log10(CFU/ml), Replicate #3: 7.146 Log10(CFU/ml)
non-growing UPEC CFT073; E. coli in LPM (pH 5.5), 10 μM, average killing vs before treatment (7.350)
  Δlog10(CFU/ml): 1.592 log10(CFU/ml)
E. coli CFT073 (UPEC); E. coli, pH 7.4, CA-MHB with 10 μg/ml efflux pump inhibitor PaβN
  MIC (μM) CA-MHB +PAβN: >160 µM
E. coli CFT073 (UPEC); pH 5.5
  MIC: 160 µM (≈ 71.8 µg/mL)
E. coli CFT073 (UPEC); pH 7.4, read-out: MIC (μM) 1:4 CA-MHB
  MIC: > 160 µM
E. coli CFT073 (UPEC); pH 7.4, read-out: MIC (μM) CA-MHB
  MIC: > 160 µM
